Measured values reported in PubChem BioAssay AID330 (DTP/NCI, 2004).
“And” between values parts separate entries of the source, which are not always exact repeats. Equal entries are not always repeated. Toxic doses and inconclusive results are not listed. How the source made its calls: active means survival T/C of 150% or more; inactive means T/C below 125% in these data.

System: P388 leukemia ip, CD2F1 mice, survival T/C
Assay: NCI In Vivo Anticancer Drug Screen. Data for tumor model P388 Leukemia (intraperitoneal) in CD2F1 (CDF1) mice
Details: endpoint: median survival time, higher = longer survival
In short: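 Mice carrying the transplanted tumor received test compound or vehicle. Survival was recorded in each group, and the value is the treated-group measurement divided by that of the vehicle-treated control group.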

[1] = dose: 50.0 mg/kg/injection, schedule: Q01DX009 (ip), vehicle: saline with Tween-80
[2] = dose: 100.0 mg/kg/injection, schedule: Q01DX009 (ip), vehicle: saline with Tween-80
[3] = dose: 200.0 mg/kg/injection, schedule: Q01DX009 (ip), vehicle: saline with Tween-80
[4] = dose: 100.0 mg/kg/injection, schedule: Q04DX003 (ip), vehicle: saline
[5] = dose: 200.0 mg/kg/injection, schedule: Q04DX003 (ip), vehicle: saline
[6] = dose: 400.0 mg/kg/injection, schedule: Q04DX003 (ip), vehicle: saline
[7] = dose: 12.5 mg/kg/injection, schedule: Q01DX009 (ip), vehicle: saline
[8] = dose: 25.0 mg/kg/injection, schedule: Q01DX009 (ip), vehicle: saline
[9] = dose: 50.0 mg/kg/injection, schedule: Q01DX009 (ip), vehicle: saline
[10] = dose: 100.0 mg/kg/injection, schedule: Q01DX009 (ip), vehicle: saline
[11] = dose: 200.0 mg/kg/injection, schedule: Q01DX009 (ip), vehicle: saline
[12] = dose: 50.0 mg/kg/injection, schedule: Q01DX005 (ip), vehicle: Klucel (hydroxypropylcellulose) (HPC)
[13] = dose: 100.0 mg/kg/injection, schedule: Q01DX005 (ip), vehicle: Klucel (hydroxypropylcellulose) (HPC)
[14] = dose: 25.0 mg/kg/injection, schedule: Q01DX005 (ip), vehicle: Klucel (hydroxypropylcellulose) (HPC)
[15] = dose: 60.0 mg/kg/injection, schedule: Q01DX005 (ip), vehicle: saline with Tween-80
[16] = dose: 120.0 mg/kg/injection, schedule: Q01DX005 (ip), vehicle: saline with Tween-80
[17] = dose: 240.0 mg/kg/injection, schedule: Q01DX005 (ip), vehicle: saline with Tween-80
[18] = dose: 100.0 mg/kg/injection, schedule: Q01DX001 (ip), vehicle: Klucel (hydroxypropylcellulose) (HPC)
[19] = dose: 200.0 mg/kg/injection, schedule: Q01DX001 (ip), vehicle: Klucel (hydroxypropylcellulose) (HPC)
[20] = dose: 400.0 mg/kg/injection, schedule: Q01DX001 (ip), vehicle: Klucel (hydroxypropylcellulose) (HPC)

Measured: T/C

Oc1ccccc1C=NCCN=Cc1ccccc1O
inactive: [1] 99 % of control | [2] 99 % of control | [3] 101 % of control | dose: 400.0 mg/kg/injection, schedule: Q01DX009 (ip), vehicle: saline with Tween-80 105 % of control

C[n+]1ccc(C(=O)O)cc1 (tested in a mixture with another compound)
inactive: [4] 104 % of control | [5] 98 % of control | [6] 98 % of control

N=c1ccn2c(n1)OC1C(O)C(CCl)OC12 (configuration not stated)
inactive: dose: 6.25 mg/kg/injection, schedule: Q01DX009 (ip), vehicle: saline 108 % of control | [7] 111 % of control | [8] 106 % of control and 92 % of control | [9] 103 % of control and 106 % of control | [10] 100 % of control and 107 % of control | [11] 110 % of control and 117 % of control

C=CCNC(=S)Nc1sc(C)c(C)c1C(=O)OCC
inactive: [1] 100 % of control | [2] 100 % of control | [3] 97 % of control

COc1ccc2nccc(C(C)=O)c2c1
inactive: [12] 100 % of control | [13] 98 % of control | dose: 200.0 mg/kg/injection, schedule: Q01DX005 (ip), vehicle: Klucel (hydroxypropylcellulose) (HPC) 106 % of control

O=C(O)CCN(Cc1ccccc1)Cc1ccccc1
inactive: [4] 100 % of control | [5] 100 % of control | [6] 109 % of control

O=C(NC(=S)c1cccs1)Nc1ccccc1
inactive: dose: 4.0 mg/kg/injection, schedule: Q01DX009 (ip), vehicle: saline with Tween-80 89 % of control | dose: 8.0 mg/kg/injection, schedule: Q01DX009 (ip), vehicle: saline with Tween-80 94 % of control | dose: 16.0 mg/kg/injection, schedule: Q01DX009 (ip), vehicle: saline with Tween-80 87 % of control | [1] 89 % of control | [2] 100 % of control

O=C1c2ccccc2C(=O)C2C1C1(c3ccccc3)OC2(c2ccccc2)c2ccccc21 (configuration not stated)
inactive: [14] 101 % of control | [12] 99 % of control | [13] 101 % of control

CCCCCCCCCCNCCSSCCNC(C)=O
inactive: dose: 1.56 mg/kg/injection, schedule: Q01DX005 (ip), vehicle: Klucel (hydroxypropylcellulose) (HPC) 103 % of control | dose: 3.12 mg/kg/injection, schedule: Q01DX005 (ip), vehicle: Klucel (hydroxypropylcellulose) (HPC) 100 % of control | dose: 6.25 mg/kg/injection, schedule: Q01DX005 (ip), vehicle: Klucel (hydroxypropylcellulose) (HPC) 105 % of control | dose: 12.5 mg/kg/injection, schedule: Q01DX005 (ip), vehicle: Klucel (hydroxypropylcellulose) (HPC) 104 % of control | [14] 102 % of control | [12] 98 % of control and 103 % of control

O=C1CCc2cc(O)ccc21
inactive: [8] 108 % of control | [9] 94 % of control | [10] 98 % of control | [11] 100 % of control

C1CC[N-]CC1.C1CC[N-]CC1.[Cl][Pt+2]([Cl])([Cl])[Cl]
inactive: dose: 264.0 mg/kg/injection, schedule: Q01DX009 (ip), vehicle: saline with Tween-80 86 % of control

ClCC1CSC(c2ccccc2)O1 (configuration not stated)
inactive: [1] 90 % of control | [2] 109 % of control | [3] 101 % of control

CCn1c(=O)cc2n(C)c3ccccc3n2c1=O
inactive: [15] 98 % of control | [16] 94 % of control | [17] 92 % of control

COc1c(C)[nH]ccc1=O
inactive: [7] 102 % of control and 105 % of control | [8] 101 % of control and 103 % of control | [9] 99 % of control and 102 % of control | [10] 99 % of control and 105 % of control | [11] 104 % of control and 107 % of control | dose: 400.0 mg/kg/injection, schedule: Q01DX009 (ip), vehicle: saline 104 % of control and 106 % of control

N#CCSCC(NC(=O)c1ccccc1)C(=O)O (configuration not stated)
inactive: dose: 50.0 mg/kg/injection, schedule: Q01DX005 (ip), vehicle: saline 100 % of control | dose: 100.0 mg/kg/injection, schedule: Q01DX005 (ip), vehicle: saline 87 % of control | dose: 200.0 mg/kg/injection, schedule: Q01DX005 (ip), vehicle: saline 97 % of control

CC(=O)/C(C=NC1CC(N=C/C(C(C)=O)=C(/C)O)CC(N=C/C(C(C)=O)=C(/C)O)C1)=C(/C)O (configuration not stated)
inactive: [1] 101 % of control | [2] 101 % of control | [3] 93 % of control

C[n+]1ccccc1C(=O)O
inactive: [8] 102 % of control | [9] 98 % of control | [10] 103 % of control | [11] 92 % of control

CN1CCN(C(=S)C(O)(c2ccccc2)c2ccccc2)CC1
inactive: [18] 105 % of control | [19] 105 % of control | [20] 100 % of control

CCC1C2C(C(C)c3c[nH]c4ccccc34)NC(=O)C23C(=O)/C=C\C(=O)C(O)/C(C)=C/C(C)C/C=C/C3C2OC12C (configuration not stated)
inactive: dose: 0.38 mg/kg/injection, schedule: Q01DX005 (ip), vehicle: Klucel (hydroxypropylcellulose) (HPC) 105 % of control and 108 % of control | dose: 0.75 mg/kg/injection, schedule: Q01DX005 (ip), vehicle: Klucel (hydroxypropylcellulose) (HPC) 110 % of control and 118 % of control | dose: 1.5 mg/kg/injection, schedule: Q01DX005 (ip), vehicle: Klucel (hydroxypropylcellulose) (HPC) 106 % of control and 122 % of control

CCCCCCCCOC(=O)COc1ccc(Cl)cc1Cl
inactive: dose: 50.0 mg/kg/injection, schedule: Q01DX001 (ip), vehicle: Klucel (hydroxypropylcellulose) (HPC) 113 % of control | dose: 50.0 mg/kg/injection, schedule: Q01DX001 (ip), vehicle: saline with Tween-80 98 % of control | [18] 109 % of control | dose: 100.0 mg/kg/injection, schedule: Q01DX001 (ip), vehicle: saline with Tween-80 100 % of control | [19] 122 % of control | dose: 200.0 mg/kg/injection, schedule: Q01DX001 (ip), vehicle: saline with Tween-80 105 % of control

COCC1(C)CCCC2(C)C1CCC13CCCCC12O3 (configuration not stated)
inactive: [18] 100 % of control | [19] 100 % of control | [20] 100 % of control

CSC(=S)N/N=C(\C)c1nccnc1C
inactive: dose: 50.0 mg/kg/injection, schedule: Q01DX005 (ip), vehicle: saline with Tween-80 101 % of control | dose: 100.0 mg/kg/injection, schedule: Q01DX005 (ip), vehicle: saline with Tween-80 106 % of control | dose: 200.0 mg/kg/injection, schedule: Q01DX005 (ip), vehicle: saline with Tween-80 111 % of control

COc1cc(-c2nnc(C3CCC(=O)N3Cc3ccccc3)o2)cc(OC)c1OC (configuration not stated)
inactive: [15] 103 % of control | [16] 100 % of control | [17] 97 % of control

Cc1ccnc(NS(=O)(=O)c2ccc(N=Nc3nc4[nH]c(N)nc(=S)c4[nH]3)cc2)n1
inactive: dose: 0.2 mg/kg/injection, schedule: Q01DX009 (ip), vehicle: saline with Tween-80 124 % of control | dose: 6.25 mg/kg/injection, schedule: Q01DX009 (ip), vehicle: saline with Tween-80 106 % of control

O=C(NCCNC(=O)[C@H]1CCCN1)[C@H]1CCCN1
inactive: dose: 60.0 mg/kg/injection, schedule: Q01DX005 (ip), vehicle: saline 98 % of control | dose: 120.0 mg/kg/injection, schedule: Q01DX005 (ip), vehicle: saline 91 % of control | dose: 240.0 mg/kg/injection, schedule: Q01DX005 (ip), vehicle: saline 93 % of control

Oc1cc2c(cc1C(c1ccc(Cl)cc1)N1CCCCC1)OCO2 (configuration not stated)
inactive: [15] 117 % of control | [16] 118 % of control | [17] 119 % of control
